Assay [1] deals with UCP-1 adipose tissue protein. The assay can be described thus: UCP-1 adipose tissue protein in db/db mice (Western blot densitometry). The format is in vivo. To be noted: 100 mg/kg qd for 3 weeks, tissue 4 hours after last dose, FIG. 10. How it is done:
Adipose tissue was collected 4 hours after the last dose of Compound 102.
For orientation: Immunoblotting shows a protein as a band on a membrane.

The test system of another assay is human adipocytes. The assay can be described thus: Beige adipocyte gene expression by RT-PCR in primary cultured human adipocytes. The assay is classed as cell-based. On the procedure:
(§1) Human adipocyte precursor cells isolated from subcutaneous abdominal fat were purchased from LaCell, LLC, New Orleans, La. Cells were seeded and grown to confluence in DMEM/F12 with 10% heat inactivated FBS. Differentiation to mature adipocytes was induced in medium composed of 70% DMEM and 30% DMEMF12 supplemented with 3% FBS, 1 μM dexamethasone (Sigma D4902), […] biotin (Sigma B4639), 100 nM insulin (Sigma 15500), 20 μM pantothenate (Sigma P5155), 5 μM rosiglitazone (AK Scientific F325) and […] (Sigma 15879) for four days. Cells were maintained in medium composed of 70% DMEM and 30% DMEMF12 supplemented with 3% FBS, 1 μM dexamethasone, 33 μM biotin, 100 nM insulin, and 20 NM pantothenate for seven days before experimental treatment.
A solution of 10 mM Compound 102 was prepared in DMSO and diluted to 60 μM or 30 μM in maintenance medium without dexamethasone for cell treatment. […]
(§2) Total RNA was isolated from adipocyte cultures grown in 12-well plates using Trizol and Qiagen RNAeasy kits. Reverse transcriptase and PCR were conducted in one reaction with the reverse PCR primer priming cDNA synthesis using SuperScript® III Platinum® One-Step Quantitative RT-PCR System with Rox from Invitrogen (11745). Predesigned Taqman primer-probe sets were purchased from Applied Biosystems for the following human transcript sequences: UCP1 (Hs249211), PPARGC1α (HS527078), PPARU (Hs103110), CPT1b (Hs439777), and GLUT4/SLC2A4 (Hs380691). Aplicons were designed to span an intron-exon junction to avoid amplification of genomic sequences. Each sample RT-PCR assay was conducted in duplicate.

The subject of assay [2] is primary cultured human adipocytes. The assay can be described thus: GLUT4 and UCP1 protein expression in primary cultured human adipocytes. The assay is classed as cell-based. To be noted: 7-day treatment period. How it is done: as §1
A solution of 10 mM Compound 102 was prepared in DMSO and diluted to 60 μM or 30 μM in maintenance medium without dexamethasone for cell treatment. In some experiments, cells were treated with 20 μM menthol (Sigma M2772).

Assay [3] can be described thus: Phase 2a clinical trial of Compound 102 (fasting plasma glucose, body weight). The assay is classed as in vivo, human. How it is done:
This Phase 2a clinical trial was conducted in the U.S. (103 subjects) and Korea (27 subjects). […] Subjects were treated with one of four active doses (100 mg once-daily (qd), 100 mg twice-daily (bid), 200 mg qd, or 200 mg bid) of Compound 102 or placebo for 4 weeks after having 3 weeks of placebo run-in. […] Body weights, as secondary endpoints, were measured at Day 1 and Day 29 and at the follow-up visit 1 week after treatment stopped, at Day 35. […] The effect was most pronounced in the U.S. subjects and in the 100 qd dose group.

The test system of assay [4] is Compound 102-induced UCP1 expression. The assay can be described thus: Effect of inhibitors on Compound 102-induced UCP1 expression. To be noted: over 4 days; LY294002 20 NM, H89 20 μM; FIG. 9. The format is cell-based, human. How it is done: as §1
as §2, with “Each sample RT-PCR assay was conducted in duplicate.” left out

Assay [5] in a line: Rodent oral glucose tolerance test. The assay is classed as in vivo. To be noted: FIG. 13. The text has this:
In contrast, menthol potentiates the insulin sensitizing action of Compound 102 in a rodent oral glucose tolerance test.

Where [6] appears, read: human adipocytes, day 4, FIG. 3.

Each structure is given as a SMILES string.

Turning to `Cc1cccc(Oc2c[nH]c(=O)[nH]c2=O)c1` [Compound 102, 5-(m-tolyloxy)pyrimidine-2,4(1H,3H)-dione], the “levels of UCP-1 adipose tissue protein” value in assay [1] was “Increased levels”. In the assay with human adipocytes (7-day treatment period, FIG. 4), the “GLUT4 mRNA” value is “continued to increase” and the “UCP1 mRNA” value is “continued to increase”. Besides, in the assay with human adipocytes (FIG. 7), the “expression of the UCP1 activator PGC-1β” value was “induced” and the “expression of the UCP1 activator PPARα” value is “induced”. The “expression of TRPM8 menthol receptor mRNA” value in the assay on human adipocytes (FIG. 8) was “induced”. In the assay on human adipocytes (setting [6]), the “expression of Adipose Triglyceride Lipase (ATGL)” value was “significant increases”, the “expression of Carnitine palmitoyltransferase-Ib (CPT-1b)” value is reported as “significant increases”, the “expression of GLUT4” value is on record as “significant increases” and the “expression of Transient Potential Melastatin 8 Receptor (TRPM8R)” value is “significant increases”. In addition, the “expression of UCP-1” value with human adipocytes (setting [6]) was “significant increases”. Besides, in assay [2] (FIG. 5), the “expression of GLUT4 protein” value is listed as “continued to exist”. In addition, the “expression of UCP1 protein” value in assay [2] (FIG. 6) is “continued to exist”. In addition, the “body weight loss over the 4-week treatment period” value in assay [3] (Day 1 to Day 29, secondary endpoint) is recorded as “statistically significant improvements in body weight loss”. In assay [3] (follow-up 1 week after treatment stopped, FIG. 2), the “body weight 1 week after treatment (Day 35) compared to Day 29” value is “all groups except for the 200 mg bid group showed continued loss”. Also, the “fasting plasma glucose (FPG)” value in assay [3] (subjects with HbA1c 7-10%, 100 mg qd, 100 mg bid, 200 mg qd or 200 mg bid for 4 weeks, FIG. 1) is listed as “progressive reduction”.

Take `O=S(=O)(NCCNC/C=C/c1ccc(Br)cc1)c1cccc2cnccc12` [Compound H89]: the “Compound 102-induced UCP1 mRNA in presence of inhibitor” value in assay [4] is on record as “reduced UCP1 mRNA to levels of unstimulated controls or lower”.

Turning to `COc1cc(CN(CCN)C(=O)OC(C)c2ccccc2)ccc1OCc1ccccc1` (centres unmarked) [PBMC], the “Compound 102-induced UCP1 mRNA in presence of inhibitor” value in assay [4] is reported as “reduced UCP1 mRNA to levels of unstimulated controls or lower”.

On to `CC1CCC(C(C)C)C(O)C1` (centres unmarked) [menthol, reference compound], for which the UCP1 expression result in the assay on human adipocytes (7 day treatment, 30 μM menthol, 30 NM Compound 102, versus Compound 102 alone, FIG. 12 panel a) is recorded as “did not induce expression”. In addition, the “insulin sensitization or glycemic control” value in assay [5] is “does effect insulin sensitization or glycemic control”.

(Values after patent US10786503B2, “Treatment of adipocytes” (Melior Pharmaceuticals I, Inc., priority 2017, dated 2020).)
